Here are results for 20 molecules from ChEMBL document CHEMBL4219209, “Design, synthesis and biological evaluation of novel tetrahydroisoquinoline derivatives as P-glycoprotein-mediated multidrug resistance inhibitors” (Bioorg Med Chem, 2018).

Counter-ions that a name gives are not always drawn. Calls of active or inactive are those of the source. No cut-off for these calls is given here.

Assay [1] has as its system K562. Briefly: Cytotoxicity against human K562 cells assessed as reduction in cell viability after 48 hrs by MTT assay. The conditions noted are these: K562, 48 h. It counts as cell-based. For orientation: Tetrazolium assays rely on reduction of a dye to a coloured formazan, in cell work by metabolically active cells.
Assay [2] deals with K562/A02. Briefly: Cytotoxicity against human K562/A02 cells overexpressing P-gp assessed as reduction in cell viability after 48 hrs by MTT assay. The assay is classed as ADME, cell-based. Conditions: K562/A02, 48 h.
The species entered for assay [3] is Homo sapiens. Briefly: Inhibition of P-gp in human K562/A02 cells assessed as potentiation of adriamycin-induced cytotoxicity by measuring fold reduction in adriamycin IC50 at 5 uM after 48 hrs by MTT assay relative to adriamycin alone. It counts as cell-based.
Assay [4] is filed under the species Homo sapiens. Briefly: Inhibition of P-gp in human K562/A02 cells assessed as potentiation of adriamycin-induced cytotoxicity by measuring fold reduction in adriamycin IC50 at 5 uM preincubated for 24 hrs followed by compound wash out and subsequent addition of adriamycin measured after 48 hrs by MTT assay relative to adriamycin alone. The assay is classed as cell-based.

The species entered for assay [5] is Homo sapiens. Briefly: Inhibition of P-gp in human K562/A02 cells assessed as potentiation of adriamycin-induced cytotoxicity by measuring fold reduction in adriamycin IC50 at 5 uM preincubated for 24 hrs followed by compound wash out and subsequent addition of adriamycin after 6 hrs measured after 48 hrs by MTT assay relative to adriamycin alone. The assay is classed as cell-based.

The species entered for assay [6] is Homo sapiens. Briefly: Inhibition of P-gp in human K562/A02 cells assessed as potentiation of adriamycin-induced cytotoxicity by measuring fold reduction in adriamycin IC50 at 5 uM preincubated for 24 hrs followed by compound wash out and subsequent addition of adriamycin after 12 hrs measured after 48 hrs by MTT assay relative to adriamycin alone. The assay is classed as cell-based.

The species named for assay [7] is Homo sapiens. Briefly: Inhibition of P-gp in human K562/A02 cells assessed as potentiation of adriamycin-induced cytotoxicity by measuring fold reduction in adriamycin IC50 at 5 uM preincubated for 24 hrs followed by compound wash out and subsequent addition of adriamycin after 24 hrs measured after 48 hrs by MTT assay relative to adriamycin alone. It counts as cell-based.

For assay [8], the species on record is Homo sapiens. Briefly: Inhibition of P-gp in human K562/A02 cells assessed as potentiation of adriamycin-induced cytotoxicity by measuring fold reduction in adriamycin IC50 at 5 uM preincubated for 24 hrs followed by adriamycin addition measured after 48 hrs by MTT assay relative to adriamycin alone. The assay is classed as cell-based.
Assay [9] is filed under the species Homo sapiens. Briefly: Inhibition of P-gp in human K562/A02 cells assessed as potentiation of adriamycin-induced cytotoxicity by measuring fold reduction in adriamycin IC50 at 2.5 uM after 48 hrs by MTT assay relative to adriamycin alone. It counts as cell-based.
The species named for assay [10] is Homo sapiens. Briefly: Inhibition of P-gp in human K562/A02 cells assessed as potentiation of adriamycin-induced cytotoxicity by measuring fold reduction in adriamycin IC50 at 1 uM after 48 hrs by MTT assay relative to adriamycin alone. The assay is classed as cell-based.
Assay [11] is filed under the species Homo sapiens. Briefly: Inhibition of P-gp in human K562/A02 cells assessed as potentiation of adriamycin-induced cytotoxicity by measuring fold reduction in adriamycin IC50 at 0.5 uM after 48 hrs by MTT assay relative to adriamycin alone. It counts as cell-based.
Assay [12] is filed under the species Homo sapiens. Briefly: Inhibition of P-gp in human K562/A02 cells assessed as potentiation of adriamycin-induced cytotoxicity by measuring fold reduction in adriamycin IC50 at 0.25 uM after 48 hrs by MTT assay relative to adriamycin alone. The assay is classed as cell-based.
The species named for assay [13] is Homo sapiens. Briefly: Inhibition of P-gp in human K562/A02 cells assessed as potentiation of adriamycin-induced cytotoxicity by measuring fold reduction in adriamycin IC50 at 0.1 uM after 48 hrs by MTT assay relative to adriamycin alone. The assay is classed as cell-based.
The species named for assay [14] is Homo sapiens. Briefly: Inhibition of P-gp in human K562/A02 cells assessed as potentiation of adriamycin-induced cytotoxicity by measuring fold reduction in adriamycin IC50 at 0.05 uM after 48 hrs by MTT assay relative to adriamycin alone. It counts as cell-based.
The species named for assay [15] is Homo sapiens. Briefly: Inhibition of P-gp in human K562/A02 cells assessed as potentiation of adriamycin-induced cytotoxicity by measuring fold reduction in adriamycin IC50 at 0.025 uM after 48 hrs by MTT assay relative to adriamycin alone. It counts as cell-based.
Assay [16] is described as follows: (§1) Inhibition of P-gp in human K562/A02 cells assessed as potentiation of adriamycin-induced cytotoxicity after 48 hrs by MTT assay. The conditions noted are these: K562/A02, 48 h. The assay is classed as cell-based.
For assay [17], the species on record is Homo sapiens. Described as §1. It counts as cell-based.
Assay [18] deals with K562/A02. Briefly: Inhibition of P-gp in human K562/A02 cells assessed as increase in adriamycin accumulation after 2.5 hrs by flow cytometry method. It counts as cell-based.
Assay [19] deals with K562. Briefly: Inhibition of P-gp in human K562 cells assessed as increase in Rh123 accumulation at 5 uM after 2.5 hrs by flow cytometry method. The assay is classed as cell-based. (In flow cytometry, cells or beads pass a laser one at a time.)
The subject of assay [20] is K562. Briefly: Inhibition of P-gp in human K562 cells assessed as Rh123 efflux at 5 uM after 90 mins by fluorospectro photometric analysis (reference value: >70%). The assay is classed as cell-based. The arrangement: scale not given: the % may be the effect or the level left.
Assay [21] has as its system K562/A02. The conditions noted are these: Homo sapiens, 5 uM.
Description: Inhibition of P-gp in human K562/A02 cells assessed as increase in adriamycin accumulation at 5 uM after 2.5 hrs by flow cytometry method

As usually defined, the IC50 is the concentration needed to halve the response being measured. In the case of `CCCCc1ccc(NC(=O)c2ccccc2NCc2cn(CCN3CCc4cc(OC)c(OC)cc4C3)nn2)cc1`, the IC50 in the assay with K562 [1] is 75.7 µM; in the assay with K562/A02 [2] (read-out: IC50), greater than 100 µM. The Ratio IC50 in the assay filed under Homo sapiens [3] came to 15.5.

In the case of `COc1cc2c(cc1OC)CN(CCn1cc(CNc3ccccc3C(=O)NCCc3ccccc3)nn1)CC2`, the results for the IC50 in the assay on K562 [1] and with K562/A02 [2] (read-out: IC50) were 42.2 µM and greater than 100 µM, respectively. Moreover, the Ratio IC50 in the assay listed under Homo sapiens [3] worked out at 4.3.

With `COc1cc2c(cc1OC)CN(CCn1cc(CNc3ccccc3C(=O)Nc3ccc4c(c3)OCO4)nn1)CC2`, the IC50 was 41.5 µM with K562 [1] and greater than 100 µM in the assay with K562/A02 [2] (read-out: IC50). In the assay filed under Homo sapiens [3], the Ratio IC50 turned out to be 4.6.

With `COc1cc2c(cc1OC)CN(CCc1ccc(NC(=O)c3cc(OC)c(OC)cc3NC(=O)c3cnc4ccccc4c3)cc1)CC2`, the Ratio IC50 worked out at 49.4 in the assay filed under Homo sapiens [3]; 17 in the assay filed under Homo sapiens [4]; 10.3 in the assay filed under Homo sapiens [5]; 6.2 in the assay listed under Homo sapiens [6]; 3.6 in the assay listed under Homo sapiens [7]; 32.1 in the assay listed under Homo sapiens [8].

For orientation: EC50 means the midpoint of the concentration-response curve. Turning to `COc1cc2c(cc1OC)CN(CCn1cc(CNc3ccccc3C(=O)Nc3ccc(C(C)(C)C)cc3)nn1)CC2`, the IC50 is 45.4 µM in the assay on K562 [1] and greater than 100 µM with K562/A02 [2] (read-out: IC50). Also, the Ratio IC50 in the assay filed under Homo sapiens [9] is 13.1; in the assay listed under Homo sapiens [3], 34.2 to 39; in the assay filed under Homo sapiens [10], 7.3; in the assay filed under Homo sapiens [11] it was 3.8; in the assay listed under Homo sapiens [12], 2.3; in the assay listed under Homo sapiens [13], 1.3. Also, the Ratio IC50 was 1.2 in the assay listed under Homo sapiens [14]; 1.2 in the assay filed under Homo sapiens [15]; 11.6 in the assay listed under Homo sapiens [4]; 8.1 in the assay listed under Homo sapiens [5]; 5 in the assay filed under Homo sapiens [6]; 3 in the assay filed under Homo sapiens [7]. Moreover, the Ratio IC50 in the assay filed under Homo sapiens [8] was determined as 40.7. Moreover, the EC50 in assay [16] came out at 0.253 µM. In addition, the inhibition result in the assay filed under Homo sapiens [17] and in the assay on K562/A02 [18] was “Dose-dependent effect” in each case. Moreover, the inhibition result with K562 [19] is “Active”. Further, the Activity with K562 [20] is less than 40%.

`COc1ccc(CCN(C)CCCC(C#N)(c2ccc(OC)c(OC)c2)C(C)C)cc1OC` (stereo unspecified) [VERAPAMIL]: the figures for the half-maximal inhibitory concentration (IC50) in the assay on K562 [1] and with K562/A02 [2] were 82.2 µM and 67.2 µM, respectively. In addition, the Ratio IC50 in the assay filed under Homo sapiens [3] was 3.3; in the assay listed under Homo sapiens [8], 4.8. Also, the inhibition result in the assay on K562 [19] and with K562/A02 [21] was “Active” throughout.

Regarding `COc1cc2c(cc1OC)CN(CCn1cc(CNc3ccccc3C(=O)NCC(C)C)nn1)CC2`, the 50% inhibitory concentration (IC50) in the assay with K562 [1] was 61.5 µM; with K562/A02 [2] (read-out: IC50), greater than 100 µM. Besides, in the assay filed under Homo sapiens [3], the Ratio IC50 is 1.7.

Turning to `COc1cc2c(cc1OC)CN(CCn1cc(CNc3ccccc3C(=O)Nc3ccc(Cl)cc3)nn1)CC2`, the IC50 in the assay with K562 [1] is 43.4 µM; in the assay on K562/A02 [2] (read-out: IC50) it was greater than 100 µM. Besides, the Ratio IC50 in the assay filed under Homo sapiens [3] amounted to 2.6.

On to `COc1cc2c(cc1OC)CN(CCn1cc(CNc3ccccc3C(=O)Nc3ccc(OC(F)(F)F)cc3)nn1)CC2`, for which the IC50 was 90.2 µM in the assay on K562 [1] and greater than 100 µM in the assay with K562/A02 [2] (read-out: IC50). Also, the Ratio IC50 in the assay listed under Homo sapiens [3] was determined as 21.4.

With `COc1cc2c(cc1OC)CN(CCn1cc(CNc3ccccc3C(=O)NCc3ccccc3)nn1)CC2`, the half-maximal inhibitory concentration (IC50) was 49.6 µM in the assay on K562 [1] and greater than 100 µM in the assay on K562/A02 [2] (read-out: IC50). Further, in the assay listed under Homo sapiens [3], the Ratio IC50 worked out at 4.5.

For the molecule `COc1cc2c(cc1OC)CN(CCn1cc(CNc3ccccc3C(=O)NC3CCOCC3)nn1)CC2`, the IC50 is 59.2 µM in the assay on K562 [1] and greater than 100 µM in the assay with K562/A02 [2] (read-out: IC50). Moreover, the Ratio IC50 in the assay filed under Homo sapiens [3] worked out at 8.2.

Take `COc1ccc(NC(=O)c2ccccc2NCc2cn(CCN3CCc4cc(OC)c(OC)cc4C3)nn2)cc1OC`: the results for the half-inhibitory concentration (IC50) with K562 [1] and with K562/A02 [2] (read-out: IC50) were 60.5 µM and greater than 100 µM, respectively. Also, in the assay filed under Homo sapiens [3], the Ratio IC50 was found to be 1.3.

For the molecule `COc1ccc(CCNC(=O)c2ccccc2NCc2cn(CCN3CCc4cc(OC)c(OC)cc4C3)nn2)cc1OC`, the half-maximal inhibitory concentration (IC50) in the assay on K562 [1] is 61.1 µM; in the assay on K562/A02 [2] (read-out: IC50), greater than 100 µM. Also, the Ratio IC50 in the assay filed under Homo sapiens [3] was found to be 1.2.

Regarding `COc1cc2c(cc1OC)CN(CCn1cc(CNc3ccccc3C(=O)Nc3ccc([N+](=O)[O-])cc3)nn1)CC2`, the IC50 in the assay on K562 [1] was 43.8 µM; in the assay on K562/A02 [2] (read-out: IC50), greater than 100 µM. For the same molecule, the Ratio IC50 in the assay filed under Homo sapiens [3] worked out at 2.6.

On to `COc1ccc(NC(=O)c2ccccc2NCc2cn(CCN3CCc4cc(OC)c(OC)cc4C3)nn2)cc1`, for which the IC50 with K562 [1] was 58.4 µM; with K562/A02 [2] (read-out: IC50), greater than 100 µM.

Consider `COc1cc2c(cc1OC)CN(CCn1cc(CNc3ccccc3C(=O)Nc3ccc(F)c(F)c3)nn1)CC2`, for which the IC50 in the assay on K562 [1] is 87.9 µM; with K562/A02 [2] (read-out: IC50) it was greater than 100 µM. Further, the Ratio IC50 in the assay filed under Homo sapiens [3] turned out to be 3.7.

Consider `COc1cc2c(cc1OC)CN(CCn1cc(CNc3ccccc3C(=O)Nc3ccccc3)nn1)CC2`, for which the IC50 with K562 [1] is 34.3 µM; in the assay with K562/A02 [2] (read-out: IC50), greater than 100 µM. Besides, the Ratio IC50 in the assay filed under Homo sapiens [3] was determined as 2.1.

As for `COc1cccc2c1C(=O)c1c(O)c3c(c(O)c1C2=O)C[C@@](O)(C(=O)CO)C[C@@H]3O[C@H]1C[C@H](N)[C@H](O)[C@H](C)O1` [DOXORUBICIN HYDROCHLORIDE], the IC50 with K562 [1] was found to be 0.97 µM; in the assay on K562/A02 [2] (read-out: IC50), 65.6 µM.

Turning to `COc1cc2c(cc1OC)CN(CCn1cc(CNc3ccccc3C(=O)Nc3cc(OC)c(OC)c(OC)c3)nn1)CC2`, the IC50 with K562 [1] is 43.1 µM; in the assay on K562/A02 [2] (read-out: IC50), greater than 100 µM. Moreover, in the assay filed under Homo sapiens [3], the Ratio IC50 worked out at 1.3.

`COc1cc2c(cc1OC)CN(CCn1cc(CNc3ccccc3C(=O)Nc3ccc(F)cc3)nn1)CC2`: the figures for the IC50 with K562 [1] and in the assay with K562/A02 [2] (read-out: IC50) were 61 µM and greater than 100 µM, respectively. Also, the Ratio IC50 in the assay filed under Homo sapiens [3] came to 3.7.
